Key:
[1] = molecular target: T1, PhoSL (Pholiota squarrosa, UniProt A0A384E107); test: NMR chemical shift titration; format: binding; details: 20 mM Tris-HCl pH 7.5, 0.2 mM DTT, 308 K; 50 μM peptide (as monomer); average for the two anomers
T1 construct: chemically synthesized 40-residue peptide, free termini, no tag, reduced Cys (DTT), homotrimer; […]; repeat 1 of a 180-residue polypeptide; differs from literature peptide at positions 23, 27, 35, 40

[2] = molecular target: the molecule itself; test: SEC; Superdex 75 10/300 with marker proteins; 96 μM PhoSL peptide; 20 mM Tris-HCl pH 7.5, 100 mM NaCl

Molecule `C[C@@H]1OC(O)[C@@H](O)[C@H](O)[C@@H]1O` (mixture of isomers) [L-fucose] has a Kd [1] of 5.9 ± 0.2 mM.

B1: PhoSL peptide (core α1–6 fucosylation-specific lectin from Pholiota squarrosa), chemically synthesized, 40 residues (peptide)
chain: APVPVTKLVCDGDTYKCTAYLDYGDGKWVAQWDTAVFHTT
notes: PhoSL lectin of Pholiota squarrosa; it corresponds to the first of three PhoSL-like repeats of the 180-residue polypeptide; numbers count on: the 40-residue peptide; No N-terminal acetylation and no C-terminal amidation; Cys10 and Cys17 were reduced (DTT) in the NMR samples; Homotrimer by gel filtration combined with cross-linking, and by the NMR structure; also called PhoSL trimer; source: …
B1 was tested, and the “stoichiometry N” value [2] was 3.
